Literature values, collected in patent US20130274214A1, “METHOD FOR TREATING BLEPHARITIS” (INSPIRE PHARMACEUTICALS, INC., priority 2010, published 2013).

Test system: meibomian gland secretions (meibum)
Conditions: daily topical administration to the ocular surface; subjects with meibomian gland dysfunction

CC[C@H]1OC(=O)[C@H](C)[C@@H](O[C@H]2C[C@@](C)(OC)[C@@H](O)[C@H](C)O2)[C@H](C)[C@@H](O[C@@H]2O[C@H](C)C[C@H](N(C)C)[C@H]2O)[C@](C)(O)C[C@@H](C)CN(C)[C@H](C)[C@@H](O)[C@]1(C)O [azithromycin]
physicochemical properties of the meibum: improved the physicochemical properties of the meibum towards that of normal subjects
